{"source": "ChEMBL document CHEMBL2062510", "about": "“Acylphloroglucinols from Elaphoglossum crassipes: antidepressant-like activity of crassipin A” (J Nat Prod, 2012)", "key": {"Mus musculus [1]": {"test_system": "Mus musculus", "experiment": "Toxicity in CF1 mouse assessed as change in number of grooming at 15 mg/kg, po measured after 60 mins by open-field test", "assay_type": "organism-based", "parameters": "dose 15 mg/kg, route oral", "conditions": "in vivo, 1 h"}, "Mus musculus [2]": {"test_system": "Mus musculus", "experiment": "Antidepressant activity in CF1 mouse assessed as reduction in immobility at 15 mg/kg, po measured after 60 mins by forced-swimming test", "assay_type": "functional, organism-based", "parameters": "dose 15 mg/kg"}, "Mus musculus [3]": {"test_system": "Mus musculus", "experiment": "Toxicity in CF1 mouse assessed as change in number of crossing at 15 mg/kg, po measured after 60 mins by open-field test", "assay_type": "organism-based", "parameters": "dose 15 mg/kg, route oral", "conditions": "in vivo, 1 h"}, "Mus musculus [4]": {"test_system": "Mus musculus", "experiment": "Toxicity in CF1 mouse assessed as change in number of rearing at 15 mg/kg, po measured after 60 mins by open-field test", "assay_type": "organism-based", "parameters": "dose 15 mg/kg, route oral", "conditions": "in vivo, 1 h"}, "Mus musculus [5]": {"test_system": "Mus musculus", "experiment": "Antidepressant activity in CF1 mouse assessed as reduction in immobility at 20 mg/kg, po measured after 60 mins by forced-swimming test", "assay_type": "functional, organism-based", "parameters": "dose 20 mg/kg"}}, "note": "Activity calls are given as the source filed them. No cut-off for these calls is given here.", "data": [{"smiles": "CC/C=C(\\OC(C)=O)C1=C(OC(C)=O)[C@](C)(C/C=C(\\C)CCC=C(C)C)C(OC(C)=O)=C(Cc2c(OC(C)=O)c3c(c(C(=O)CCC)c2OC(C)=O)OC(C)(C)C=C3)C1=O", "values": [{"measurement": "Activity", "setting": "Mus musculus [1]", "value": "Non-toxic"}, {"measurement": "Activity", "setting": "Mus musculus [2]", "value": "Active"}, {"measurement": "Activity", "setting": "Mus musculus [3]", "value": "Non-toxic"}, {"measurement": "Activity", "setting": "Mus musculus [4]", "value": "Non-toxic"}]}, {"smiles": "CN(C)CCCN1c2ccccc2CCc2ccccc21", "values": [{"measurement": "Activity", "setting": "Mus musculus [5]", "value": "Active"}]}, {"smiles": "CCCC(=O)C1=C(O)[C@](C)(C/C=C(\\C)CCC=C(C)C)C(O)=C(Cc2c(O)c3c(c(C(=O)CCC)c2O)OC(C)(C)C=C3)C1=O", "note": "[CRASSIPIN A]", "values": [{"measurement": "Activity", "setting": "Mus musculus [1]", "value": "Non-toxic"}, {"measurement": "Activity", "setting": "Mus musculus [2]", "value": "Active"}, {"measurement": "Activity", "setting": "Mus musculus [3]", "value": "Non-toxic"}, {"measurement": "Activity", "setting": "Mus musculus [4]", "value": "Non-toxic"}]}]}
